Results from article PMC7562719, “Discovery of a CNS penetrant small molecule SMN2 splicing modulator with improved tolerability for spinal muscular atrophy” (Scientific Reports, 2020).
Like-named read-outs stand apart in the source and are kept apart here.

Columns and labels:
[1] = target: T1, rat N type calcium channel (Rattus norvegicus, UniProt Q02294); experiment: Eurofins selectivity panel: N type calcium channel; assay type: binding
T1 construct: purchased Eurofins Inc

SMN2 splicing = experiment: qPCR of SMN transcripts in GM03813 cells exposed to TEC-1 and nusinersen; assay type: cell-based, human; conditions: GM03813, 24 h
Method: Transient transfection of GM03813 fibroblasts with nusinersen (final concentration 100 nM) was performed using Lipofectamine 2000. Cells were seeded 6 h prior to transfection at a density of 5 × 10^3 cells/well in 96-well plate. Transfection was performed according to manufacturer’s instructions. Cells were co-incubated either 0.1% DMSO or with TEC-1 at the concentration of 0.03, 0.1, 0.3, 1, and 3 µM for 24 h.

[2] = general in vitro toxicity and ADME tests; conditions: solubility, PAMPA, MDR1, stability, CYP inhibition, CYP induction/PXR, hERG, cytotoxicity, umu, Ames, in vitro micronucleus test
TK6 cells = tested on: TK6 cells
Method: These articles have been recommended for use in the OECD test guideline (Test No. 487)[49]. For metabolic activation, pre-cultured TK6 cells with the culture medium were supplemented with Sprague–Dawley rat liver mix (S9 mix, IEDA TRADING CORPORATION, Japan) at 3.33 vol%. Then, compound was mixed with the cell suspension and treated under the following treatment conditions: • Short-term treatment for 3 h without S9 mix, followed by a 21-h culture (−S9 mix assay), • Short-term treatment for 3 h with S9 mix, followed by a 21-h culture (+S9 mix assay), or • Continuous treatment for 24 h without S9 mix (24-h assay). For treatment conditions 1 and 2, the cells in each well were centrifuged after the 3-h treatment, the supernatants were discarded, and the cells were washed twice with culture medium. The cells were further cultured with fresh culture medium for 21 h. The compound-treated cells were examined by the unaided eye for precipitation of compound at the start and end of treatment. After treatment, the rest of each cell suspension was centrifuged and then the cells were suspended in a 0.075 mol/L KCl solution at room temperature for 10 min. Then, 25 vol% acetic acid containing methanol was added and the centrifuged cells were fixed. The fixed cells were resuspended in a small amount of 3 vol% acetic acid containing methanol, which was changed two times by centrifugation. Finally, a drop of the cell suspension was transferred onto a slide and dried at room temperature. The slides were stained at room temperature in a 3 vol% Giemsa solution (Merck KGaA) diluted with Sörensen phosphate buffer (1/15 mol/L, pH 6.8, Muto Pure Chemicals Co. Ltd.). Four slides per dose (2 slides per well) were prepared. Each slide was coded randomly. The test was conducted at the following doses of TEC-1. -S9 mix assay: 1.5, 1.7, 1.9, 2.1, 2.3, 2.5, 2.7, 2.9, and 3.1 µg/mL, + S9 mix assay: 1.9, 2.1, 2.3, 2.5, 2.7, 2.9, 3.1, 3.3, and 3.5 µg/mL, 24-h assay: 0.9, 1.1, 1.3, 1.5, 1.7, 1.9, 2.1, 2.3, and 2.5 µg/mL. To perform scoring for compound and negative control groups, the number of cells in the suspensions was counted using a Coulter Counter (Z2; Beckman Coulter, Inc.). The positive control groups were not determined. A portion (0.5 mL) of the cell suspension was diluted with 20 mL of Isoton II, and 0.5 mL of this solution was used for cell counts. The cell number per 1 mL at each culture was calculated by the following formula. Cellnumber/mL=Dilutionfactor×valueof1stcount+valueof2ndcount/2×2
The population doubling (PD) and relative population doubling (RPD) at each concentration was calculated by the following formula. PD=log10cell number at the end of culture/cell number at the start of treatment∗/log102∗:1×10^5cells/mL.
RPD%=PD of the compound-treated group/PD of the negative control group×100 For the treated groups, the 3 consecutive concentrations were selected as follows. […] For all concentrations, 4000 mononuclear cells with cytoplasm were analyzed and the number of cells with micronucleus (micronuclei) was counted using a microscope (× 600). Micronucleus is identified as a round or oval small nucleus in the cytoplasm with the same staining intensity as the main nucleus. The diameter of each micronucleus should be less than 1/2 of the diameter of the main nucleus. Two investigators observed the slides. Each investigator scored 1000 cells for the frequency of micronucleated cells. Data from the two investigators were combined for each culture and the combined data from duplicate cultures were pooled for each concentration for each treatment condition. A cell having one or more micronuclei was recorded as a micronucleated cell.

T1 sequence (Q02294 whole entry): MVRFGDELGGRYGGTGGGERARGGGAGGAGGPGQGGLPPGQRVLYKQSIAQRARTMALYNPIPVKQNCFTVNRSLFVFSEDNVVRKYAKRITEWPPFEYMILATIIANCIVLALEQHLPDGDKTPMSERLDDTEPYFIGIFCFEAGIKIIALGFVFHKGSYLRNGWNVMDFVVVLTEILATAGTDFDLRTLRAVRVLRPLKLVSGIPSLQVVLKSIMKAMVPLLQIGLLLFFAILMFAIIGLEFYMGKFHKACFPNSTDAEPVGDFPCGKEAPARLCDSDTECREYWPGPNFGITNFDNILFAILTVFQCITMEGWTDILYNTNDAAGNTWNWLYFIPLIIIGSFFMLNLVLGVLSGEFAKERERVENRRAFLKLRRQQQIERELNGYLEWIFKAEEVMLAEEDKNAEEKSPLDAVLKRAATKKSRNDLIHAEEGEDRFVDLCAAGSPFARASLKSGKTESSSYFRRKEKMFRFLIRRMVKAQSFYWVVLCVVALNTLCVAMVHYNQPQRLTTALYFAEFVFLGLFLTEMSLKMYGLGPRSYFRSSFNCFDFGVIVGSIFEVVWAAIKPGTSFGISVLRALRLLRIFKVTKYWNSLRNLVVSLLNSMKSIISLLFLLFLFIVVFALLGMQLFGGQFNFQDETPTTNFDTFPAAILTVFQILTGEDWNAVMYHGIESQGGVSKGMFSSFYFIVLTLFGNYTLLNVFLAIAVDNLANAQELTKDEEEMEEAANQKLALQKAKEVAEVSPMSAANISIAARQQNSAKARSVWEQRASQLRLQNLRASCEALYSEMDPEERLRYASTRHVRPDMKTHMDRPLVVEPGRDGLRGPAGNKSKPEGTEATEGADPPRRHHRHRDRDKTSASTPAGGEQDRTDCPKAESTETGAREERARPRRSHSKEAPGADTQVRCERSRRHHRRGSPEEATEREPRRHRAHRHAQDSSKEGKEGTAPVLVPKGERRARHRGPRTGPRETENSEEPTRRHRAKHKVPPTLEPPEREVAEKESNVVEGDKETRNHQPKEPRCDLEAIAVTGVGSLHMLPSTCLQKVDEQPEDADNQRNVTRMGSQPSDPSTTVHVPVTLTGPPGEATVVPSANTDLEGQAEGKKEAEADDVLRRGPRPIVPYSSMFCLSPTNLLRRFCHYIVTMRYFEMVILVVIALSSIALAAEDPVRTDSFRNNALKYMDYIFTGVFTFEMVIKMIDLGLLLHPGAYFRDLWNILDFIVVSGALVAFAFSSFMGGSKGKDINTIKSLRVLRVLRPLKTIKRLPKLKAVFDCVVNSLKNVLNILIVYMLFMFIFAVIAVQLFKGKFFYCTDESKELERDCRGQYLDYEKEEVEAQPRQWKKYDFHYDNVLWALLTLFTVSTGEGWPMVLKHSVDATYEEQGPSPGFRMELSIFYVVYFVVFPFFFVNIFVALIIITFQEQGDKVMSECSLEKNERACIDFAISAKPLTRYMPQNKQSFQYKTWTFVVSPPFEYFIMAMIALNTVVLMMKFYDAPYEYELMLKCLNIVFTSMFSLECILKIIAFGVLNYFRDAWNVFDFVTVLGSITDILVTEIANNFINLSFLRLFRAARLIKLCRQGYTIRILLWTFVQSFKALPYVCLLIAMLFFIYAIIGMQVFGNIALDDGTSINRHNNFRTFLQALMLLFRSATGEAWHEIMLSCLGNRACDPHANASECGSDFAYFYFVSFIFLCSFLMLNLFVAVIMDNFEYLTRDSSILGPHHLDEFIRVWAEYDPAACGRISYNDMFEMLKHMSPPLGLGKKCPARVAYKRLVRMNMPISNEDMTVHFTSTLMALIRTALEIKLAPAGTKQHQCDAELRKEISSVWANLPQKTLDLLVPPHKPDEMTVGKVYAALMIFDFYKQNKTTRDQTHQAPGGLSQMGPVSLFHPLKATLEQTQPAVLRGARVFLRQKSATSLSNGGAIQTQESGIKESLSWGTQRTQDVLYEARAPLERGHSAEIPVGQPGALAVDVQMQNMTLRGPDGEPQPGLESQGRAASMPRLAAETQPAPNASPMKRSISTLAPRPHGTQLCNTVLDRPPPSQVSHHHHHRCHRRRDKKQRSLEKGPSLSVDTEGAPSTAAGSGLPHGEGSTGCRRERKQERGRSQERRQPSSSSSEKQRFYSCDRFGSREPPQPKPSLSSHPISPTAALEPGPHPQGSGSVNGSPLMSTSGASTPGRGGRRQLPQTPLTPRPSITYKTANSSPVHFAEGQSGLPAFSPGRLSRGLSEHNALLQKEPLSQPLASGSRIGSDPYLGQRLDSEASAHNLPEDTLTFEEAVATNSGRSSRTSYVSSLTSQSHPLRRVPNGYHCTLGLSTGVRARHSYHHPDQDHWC
T1 sequence (P54287 whole entry partner): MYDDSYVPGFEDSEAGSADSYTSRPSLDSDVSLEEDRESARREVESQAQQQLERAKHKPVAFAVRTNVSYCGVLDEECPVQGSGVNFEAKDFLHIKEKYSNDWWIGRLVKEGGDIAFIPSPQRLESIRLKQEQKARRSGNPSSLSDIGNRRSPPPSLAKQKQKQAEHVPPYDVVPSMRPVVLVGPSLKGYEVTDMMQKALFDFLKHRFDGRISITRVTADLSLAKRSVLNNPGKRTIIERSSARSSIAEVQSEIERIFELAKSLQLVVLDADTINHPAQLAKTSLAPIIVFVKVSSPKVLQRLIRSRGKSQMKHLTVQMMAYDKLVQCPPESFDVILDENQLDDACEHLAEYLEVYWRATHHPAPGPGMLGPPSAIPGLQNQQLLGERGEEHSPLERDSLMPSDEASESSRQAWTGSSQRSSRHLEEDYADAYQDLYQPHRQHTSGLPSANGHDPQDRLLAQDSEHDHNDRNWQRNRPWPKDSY
T1 sequence (P54290 25-944 partner limits assumed): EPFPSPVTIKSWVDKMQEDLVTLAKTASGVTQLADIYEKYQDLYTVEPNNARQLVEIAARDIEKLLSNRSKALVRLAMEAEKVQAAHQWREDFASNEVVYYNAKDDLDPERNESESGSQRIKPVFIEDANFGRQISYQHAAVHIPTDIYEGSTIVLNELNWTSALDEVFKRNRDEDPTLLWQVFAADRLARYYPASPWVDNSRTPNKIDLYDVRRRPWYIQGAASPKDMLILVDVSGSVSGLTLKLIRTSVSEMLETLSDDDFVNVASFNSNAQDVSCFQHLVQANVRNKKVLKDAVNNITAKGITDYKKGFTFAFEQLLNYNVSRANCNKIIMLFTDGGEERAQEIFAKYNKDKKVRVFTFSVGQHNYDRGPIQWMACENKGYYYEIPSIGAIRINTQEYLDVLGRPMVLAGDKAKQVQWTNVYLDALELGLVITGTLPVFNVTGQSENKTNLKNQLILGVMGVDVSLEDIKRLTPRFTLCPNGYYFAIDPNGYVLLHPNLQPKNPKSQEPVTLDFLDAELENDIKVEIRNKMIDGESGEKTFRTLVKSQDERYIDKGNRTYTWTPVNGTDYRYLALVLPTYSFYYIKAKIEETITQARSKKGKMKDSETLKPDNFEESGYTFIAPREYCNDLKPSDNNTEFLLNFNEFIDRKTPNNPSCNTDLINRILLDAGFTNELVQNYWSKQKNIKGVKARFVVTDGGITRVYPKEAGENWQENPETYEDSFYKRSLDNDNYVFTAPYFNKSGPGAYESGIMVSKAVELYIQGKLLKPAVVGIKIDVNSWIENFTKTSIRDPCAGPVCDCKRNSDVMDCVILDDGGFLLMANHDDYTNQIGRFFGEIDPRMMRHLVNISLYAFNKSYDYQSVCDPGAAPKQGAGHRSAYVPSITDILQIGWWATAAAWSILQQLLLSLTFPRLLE
T1 sequence (P54290 945-1091 partner limits assumed): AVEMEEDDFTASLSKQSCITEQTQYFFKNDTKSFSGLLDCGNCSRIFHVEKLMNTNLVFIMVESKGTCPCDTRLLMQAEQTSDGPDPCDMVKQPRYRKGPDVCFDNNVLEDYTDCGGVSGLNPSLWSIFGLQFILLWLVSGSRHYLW

Q: Which IC50 [1] does the source give for Cc1cn2nc(-c3nc4ccc(N5CCN(C)CC5)cc4c(=O)[nH]3)cc2c(C)n1 [TEC-1, 2-(4,6-dimethylpyrazolo[1,5-a]pyrazin-2-yl)-6-(4-methylpiperazin-1-yl)quinazolin-4(3H)-one] here?
A: 8.8 µM

Q: And the “effect on the activity of nusinersen” value (SMN2 splicing; TEC-1 at 1 and 3 µM with nusinersen 100 nM)?
A: significantly enhanced the effects of nusinersen

Q: And the “effect on the activity of nusinersen” value (SMN2 splicing; low concentrations of TEC-1 with nusinersen 100 nM)?
A: did not inhibit the effects of nusinersen

Q: What about the “general in vitro toxicity and ADME profile” value [2] of the same molecule?
A: good profiles

Q: And the “micronucleus induction, overall conclusion” value (TK6 cells)?
A: do not induce micronucleation

Q: What about the “concentration at which precipitation was noted” value (TK6 cells; 24-h assay condition, culture medium) of the same molecule?
A: ≥ 1.5 µg/mL

Q: And the “concentration at which cytotoxicity (RPD of less than 50%) was noted” value (TK6 cells; human, 3 h)?
A: ≥ 2.3 µg/mL

Q: And the “Micronucleated cells (%)” value (TK6 cells; human, 3 h, 1.9 µg/mL)?
A: (0.73) %

Q: And the “Micronucleated cells Total” value (TK6 cells; human, 3 h, 1.9 µg/mL)?
A: 29

Q: What about the “Micronucleated cells Well 1” value (TK6 cells; human, 3 h, 1.9 µg/mL) of the same molecule?
A: 13

Q: What about the “Micronucleated cells Well 2” value (TK6 cells; human, 3 h, 1.9 µg/mL) of the same molecule?
A: 16

Q: And the Relative population doubling (TK6 cells; human, 3 h, 1.9 µg/mL)?
A: 68.6%

Q: And the “Micronucleated cells (%)” value (TK6 cells; human, 3 h, 2.1 µg/mL)?
A: (0.9) %

Q: What about the “Micronucleated cells Total” value (TK6 cells; human, 3 h, 2.1 µg/mL) of the same molecule?
A: 36

Q: What about the “Micronucleated cells Well 1” value (TK6 cells; human, 3 h, 2.1 µg/mL) of the same molecule?
A: 16

Q: And the “Micronucleated cells Well 2” value (TK6 cells; human, 3 h, 2.1 µg/mL)?
A: 20

Q: And the Relative population doubling (TK6 cells; human, 3 h, 2.1 µg/mL)?
A: 65.4%

Q: What about the “Micronucleated cells (%)” value (TK6 cells; human, 3 h, 2.3 µg/mL) of the same molecule?
A: (1.4) **^,## %

Q: What about the “Micronucleated cells Total” value (TK6 cells; human, 3 h, 2.3 µg/mL) of the same molecule?
A: 56

Q: What about the “Micronucleated cells Well 1” value (TK6 cells; human, 3 h, 2.3 µg/mL) of the same molecule?
A: 29

Q: What about the “Micronucleated cells Well 2” value (TK6 cells; human, 3 h, 2.3 µg/mL) of the same molecule?
A: 27

Q: And the Relative population doubling (TK6 cells; human, 3 h, 2.3 µg/mL)?
A: 35.0%

Q: And the “Micronucleated cells (%)” value (TK6 cells; human, 24 h, 1.1 µg/mL)?
A: (0.85) %

Q: What about the “Micronucleated cells Total” value (TK6 cells; human, 24 h, 1.1 µg/mL) of the same molecule?
A: 34

Q: And the “Micronucleated cells Well 1” value (TK6 cells; human, 24 h, 1.1 µg/mL)?
A: 21

Q: And the “Micronucleated cells Well 2” value (TK6 cells; human, 24 h, 1.1 µg/mL)?
A: 13

Q: What about the Relative population doubling (TK6 cells; human, 24 h, 1.1 µg/mL) of the same molecule?
A: 81.7%

Q: And the “Micronucleated cells (%)” value (TK6 cells; human, 24 h, 1.3 µg/mL)?
A: (0.73) %

Q: What about the “Micronucleated cells Total” value (TK6 cells; human, 24 h, 1.3 µg/mL) of the same molecule?
A: 29

Q: What about the “Micronucleated cells Well 1” value (TK6 cells; human, 24 h, 1.3 µg/mL) of the same molecule?
A: 17

Q: What about the “Micronucleated cells Well 2” value (TK6 cells; human, 24 h, 1.3 µg/mL) of the same molecule?
A: 12

Q: And the Relative population doubling (TK6 cells; human, 24 h, 1.3 µg/mL)?
A: 74.4%

Q: And the “Micronucleated cells (%)” value (TK6 cells; human, 24 h, 1.5 µg/mL)?
A: (0.8) %

Q: And the “Micronucleated cells Total” value (TK6 cells; human, 24 h, 1.5 µg/mL)?
A: 32

Q: What about the “Micronucleated cells Well 1” value (TK6 cells; human, 24 h, 1.5 µg/mL) of the same molecule?
A: 17

Q: What about the “Micronucleated cells Well 2” value (TK6 cells; human, 24 h, 1.5 µg/mL) of the same molecule?
A: 15

Q: And the Relative population doubling (TK6 cells; human, 24 h, 1.5 µg/mL)?
A: 69.5%
